Test results as given in patent US11708562B2, “Differentiation of human embryonic stem cells” (Janssen Biotech, Inc., priority 2006, dated 2023).
Values joined by “and” are separate entries in the source; they are usually repeats but may differ in a detail not shown here. Equal entries are not always repeated.

How the values were obtained:
[1] = test system: H9P49 embryonic stem cells; experiment: Pancreatic endoderm under feeder-free conditions: evaluation of retinoic acid analogues (PCR); assay type: cell-based, human; details: 10 μM AM-580
Experimental: At day 5, cells were collected for evaluation by FACS and real-time PCR. […] The resulting definitive endoderm cells at day 5 were exposed to the following media conditions to induce pancreatic endoderm formation: culturing in DMEM/F12 media supplemented with 2% FBS and 1 μM all-trans retinoic acid (RA) (Catalog # R2625, Sigma, MO), or 0.1-10 μM AM-580 (4-[(5,6,7,8-Tetrahydro-5,5,8,8-tetramethyl-2-naphthalenyl)carboxamido]benzoic acid, Catalog # A8843, Sigma, MO), or 0.1-1 μM TTNPB (4-[(E)-2-(5,6,7,8-Tetrahydro-5,5,8,8-tetramethyl-2-naphthalenyl)-1-propenyl]benzoic acid Arotinoid acid, Catalog # T3757, Sigma, MO) for 3 days. AM-580 and TITNPB are retinoic acid analogs with affinity for retinoic acid receptors. RA treatment was followed by additional three day treatment in DMEM/F12 media supplemented with 2% FBS and 20-50 ng/ml bFGF (Catalog # F0291, Sigma, MO). Cultures were harvested and samples of mRNA were collected for analysis.

[2] = test system: H9 embryonic stem cells; experiment: Immunofluorescence staining of DE markers +/- Wnt-3a; assay type: cell-based, human
Text: Day 5 DE cultures of H9 cells were stained according to Example 10 for SOX-17, HNF-3B, GATA-4, N-cadherin, and E-cadherin. All nuclei were counter stained with DAPI.

[3] = test system: human embryonic stem cell line H9; experiment: Cells from […] differentiated on MEFs: role of Wnt-3a (real-time PCR, FACS); assay type: cell-based
Experimental: Cells from the human embryonic stem cell line H9 cultured on […]™ for at least five passages were seeded onto MEF feeders in ES media.
At day 3 and 5, the cultures were analyzed by real time PCR for SOX-17, SOX-7, Alpha-fetal protein (AFP), CXCR4, Brychyury (Bry), gooscecoid (GSC), HNF-3 beta, GATA4, hTERT and Oct4. AFP and SOX-7 are regarded as visceral endoderm markers while GATA4, HNF-3beta and SOX-17 represent definite endoderm markers and GSC, Bry, and CXCR4 represent markers of primitive streak. hTERT and Oct-4 are markers for self renewal and pluripotency respectively. FACS analysis was also performed at day 3 and 5.

[4] = test system: SA002 P38 cells; experiment: Differentiation of SA002 ES line on […] to definitive endoderm; assay type: cell-based, human; details: 20 ng/ml Wnt-3a
Text: Expression of CXCR4 is depicted in FIGS. 45A, 45B and 45C: a) AA treatment b) AA+Wnt-3a c) AA+GSK-3B inhibitor.

[5] = test system: H9P44 cells; experiment: Definitive endoderm on MEFs with growth factor combinations: RT-PCR of definitive endoderm markers (Table V); assay type: cell-based, human; details: H9P44 on MEF
Experimental: H9P44 cells were plated onto 6 well plates previously coated with mitomycin treated mouse embryonic fibroblasts (MEF). Cells were grown until 70 to 80% confluency in ES cell medium consisting of DMEM/F12 (Invitrogen/GIBCO) supplemented with 20% knockout serum replacement, 100 nM MEM nonessential amino acids, 0.5 mM beta-mercaptoethanol, 2 mM L-glutamine (all from Invitrogen/GIBCO) and 8 ng/ml human basic fibroblast growth factor (bFGF) (R&D Systems).
Growth factors were added to increasing concentration of FBS in a stepwise manner as indicated in the following regimen:
All growth factors were purchased from R&D Systems, MN. A detailed description and concentration of growth factors for each treatment group is shown below. • 1. Control—No growth factor added • 2. […] IL-4 (10 ng/ml) • 10. SDF1a (20 ng/ml) • 11. […] BMP2 (100 ng/ml)+BMP-4 (100 ng/ml)+BMP-6 (100 ng/ml)+BMP-7 (100 ng/ml) • 13.
For RT-PCR analysis, cells were analyzed for expression of selected panel of definitive endoderm markers.

[6] = test system: H9P46-P48 embryonic stem cells; experiment: Definitive endoderm on […]: effect of GSK-3B inhibitor (FACS CXCR4, PCR); assay type: cell-based, human; details: 20 ng/ml of Wnt-3a or 100-1000 nM GSK-3B inhibitor
Experimental: In order to confirm that the effect of Wnt-3a was through the Wnt pathway, a GSK-3 inhibitor was used to activate the downstream targets of Wnt, such as beta catenin. […] FIG. 29A depicts the expression of CXCR4 by FACS at day 5 in the absence of Wnt-3a or GSK-3B inhibitor, b)+20 ng/ml Wnt-3a, c)+1000 nM GSK-3B inhibitor IX, d)+500 nM GSK-3B inhibitor IX, e)+100 nM GSK-3B inhibitor IX, f)+10 nM GSK-3B inhibitor IX, g)+100 nM GSK-3B inhibitor IX for days 1-2, and h)+10 nM GSK-3B inhibitor IX for days 1-2.

[7] = test system: H9 cultures; experiment: Definitive endoderm on varying concentrations of […] with Wnt-3a (real-time PCR); assay type: cell-based, human; details: low serum, 100 ng/ml activin A and 20 ng/ml Wnt-3a
Experimental: H9 cells were cultured on plates coated with regular […] at a 1:60 to 1:10 dilution. The plates were coated with […] for 1 hr at room temperature.

[8] = test system: human embryonic stem cell line H1 at passage 55; experiment: Definitive endoderm on human serum coated plates (real-time PCR); assay type: cell-based
Experimental: Cultures of the human embryonic stem cell line H1 at passage 55 were grown and differentiated on human serum (Sigma, # H1388, MO) coated plates. 0.5 ml of human serum was added to each well of 6 well tissue culture treated dish, incubated for 1 hr at room temperature, and aspirated before adding human embryonic stem cells. […] These findings parallel our findings for human embryonic stem cells cultured on […]™ or human fibronectin coated plates.

[9] = test system: H7P44 and H9P46 embryonic stem cells; experiment: Definitive endoderm on […]: role of Wnt ligands (FACS CXCR4, real-time PCR); assay type: cell-based, human; details: H7 and H9; low serum+AA+/-Wnt ligands
Experimental: In some of the cultures 20 ng/ml Wnt-3a (Catalog #1324-WN-002, R&D Systems, MN), 20 ng/ml Wnt-5a (Catalog #654-WN-010, R&D Systems, MN), 25 ng/ml Wnt-7a (Catalog #3008-WN-025, R&D Systems, MN), or 25 ng/ml Wnt-5b (Catalog #3006-WN-025, R&D Systems, MN) was added throughout the five day treatment. FIGS. 24A and 24B depicts phase contrast images of H9P46 definitive endoderm culture in the presence of high concentration of (a) AA or (b) AA+20 ng/ml Wnt-3a. FIGS. 25A, 25B, 25C and 25D depicts the expression of CXCR4 by FACS at day 5 for H7P44, and H9P46 lines cultured on […]™ (1:30 dilution) and exposed to the DE protocol+Wnt-3a (FIGS. 25B and 25D) and -Wnt-3a (FIGS. 25A and C).

[10] = test system: human embryonic stem cell line H9; experiment: Cytokine array of cell lysates and conditioned media +/- Wnt3a (Table VII); assay type: cell-based; set-up: unit not given here; details: 100 ng/ml Activin A + 10 ng/ml Wnt3a
Experimental: The effect that Wnt-3a treatment has on cytokine expression was analyzed using a protein array. Cells of the human embryonic stem cell line H9 were cultured according to the methods described in Example 15. […] Cell lysates were prepared from cells of each treatment group, with a mammalian cell lysis kit (Sigma-Aldrich, MO). Conditioned media from each treatment group was collected and concentrated. Cytokine array analysis was completed using Cytokine Array panels provided by RayBiotech, GA (http://www.raybiotech.com/). Table VII lists cytokine, growth factor, and receptor expression following normalization of the data and background subtraction. For each panel, positive and negative controls are also included.

[11] = test system: H9P46 embryonic stem cells; experiment: Definitive endoderm on […]: effective dose of Wnt-3a (FACS, PCR, cell number); assay type: cell-based, human
Experimental: Control cultures were not treated with Wnt-3a. FIG. 27A depicts the expression of CXCR4 by FACS at day 5 in the absence of Wnt-3a, b) 10 ng/ml Wnt-3a, c) 20 ng/ml Wnt-3a and d) 50 ng/ml Wnt-3a. In the absence of Wnt-3a the expression of CXCR4 was very low. […] Real-time PCR results (FIG. 28A) also confirm this finding.
In a separate study, H9p52 cells were plated on 1:30 low growth factor […]™. For the first 2 days of the DE protocol a range of Wnt3A doses was used: 10 ng/ml, 5 ng/ml and 1 ng/ml. […] The number of cells at the end of the experiment is noted in FIG. 28C.

[12] = test system: H9P53 embryonic stem cells; experiment: Definitive endoderm on […]: combination of Wnt-3a, GSK-3B inhibitor, BMP-4; assay type: cell-based, human; details: Wnt-3A plus GSK inhibitor in the presence of activin A
Text: Results are expressed as fold increase over untreated cells. […] Results are expressed as fold increase over untreated cells.

Compound | expression of PDX-1 [1] | nuclei stained positive for SOX-17, HNF-3beta and GATA-4 ([2]; 20 ng/ml Wnt-3a, day 5) | expression of e-cadherin ([2]; addition of Wnt-3a) | role in differentiation of cells cultured on MEFs to definitive endoderm [3] | expression of DE markers [4] | definitive endoderm markers on addition to high dose activin A in low serum [5] | number of CXCR4 positive cells (FACS) [6] | expression of CXCR4, GATA4, Goosecoid, HNF-3beta, and SOX-17 genes [7] | expression of definitive endoderm markers compared to activin A only [8] | expression of definitive endoderm markers (real-time PCR) [9] | Axl expression ([10]; cell conditioned media) | IL-1beta expression ([10]; cell conditioned media) | IL-1ra expression ([10]; cell conditioned media) | Axl expression ([10]; cell lysate) | IL-1beta expression ([10]; cell lysate) | IL-1ra expression ([10]; cell lysate) | number of CXCR4 positive cells (FACS) ([11]; 10-50 ng/ml of Wnt-3a, day 5) | Wnt3a dose sufficient for optimal cell expansion and definitive endoderm differentiation ([11]; H9p52, for 2 days) | expression of CXCR4 (FACS) ([11]; absence versus 10 and 50 ng/ml Wnt-3a: 10 ng/ml compared with 50 ng/ml) | definitive endoderm markers, combination versus each agent by itself [12]
CC1(C)CCC(C)(C)c2cc(C(=O)Nc3ccc(C(=O)O)cc3)ccc21 [AM-580, 4-[(5,6,7,8-Tetrahydro-5,5,8,8-tetramethyl-2-naphthalenyl)carboxamido]benzoic acid] | maintaining a high expression |  |  |  |  |  |  |  |  |  |  |  |  |  |  |  |  |  |  | 
Wnt-3a |  | significantly larger number | significant loss of expression | does not appear to play a significant role | required addition of Wnt-3A for robust expression of DE markers | no significant upregulation | significantly increased | led to the expression | Robust expression | significant upregulation | 610.40 and 748.34 | 316.59 and 278.30 | 354.23 and 581.75 | 88.59 and 139.03 | 352.05 and 312.08 | 302.68 and 198.48 | significantly increased | 10 ng/mL | as effective as | do not lead to significant upregulation
